Measured values reported in ChEMBL document CHEMBL5537181 (J Med Chem, 2024).
Calls of active or inactive are those of the source.

What was measured:
[1] = target: Neuronal acetylcholine receptor; alpha9/alpha10 (Homo sapiens, UniProt Q9GZZ6+Q9UGM1); test: Antagonist activity at human wild type alpha9alpha10 nAChR expressed in acetylcholine-induced Xenopus laevis oocytes assessed as inhibition of acetylcholine-induced current at 1:3 ratio of protein by two electrode voltage-clamp assay; assay type: cell-based, Oocyte
[2] = Antagonist activity at human alpha9alpha10G152N mutant nAChR expressed in acetylcholine-induced Xenopus laevis oocytes assessed as inhibition of acetylcholine-induced current at 1:1 ratio of protein by two electrode voltage-clamp assay; assay type: cell-based; details: Oocyte
[3] = target: T1, Neuronal acetylcholine receptor; alpha9/alpha10 (Homo sapiens) (UniProt Q9UGM1+Q9GZZ6); test: Antagonist activity at human wild type alpha9alpha10 nAChR expressed in acetylcholine-induced Xenopus laevis oocytes assessed as inhibition of acetylcholine-induced current at 30 nM by two electrode voltage-clamp assay relative to control; assay type: cell-based; details: Oocyte, filed as antagonist
[4] = target: Nicotinic acetylcholine receptor alpha9/alpha10 (Rattus norvegicus, UniProt P43144+Q9JLB5); test: Antagonist activity at rat wild type alpha9alpha10 nAChR expressed in acetylcholine-induced Xenopus laevis oocytes assessed as inhibition of acetylcholine-induced current at 1:1 ratio of protein by two electrode voltage-clamp assay; assay type: cell-based, Oocyte
[5] = target: T2, Neuronal acetylcholine receptor subunit alpha-7 (Homo sapiens, UniProt P36544); test: Antagonist activity at human alpha7 nAChR expressed in acetylcholine-induced Xenopus laevis oocytes assessed as inhibition of acetylcholine-induced current at 30 nM by two electrode voltage-clamp assay; assay type: cell-based; details: Oocyte, filed as antagonist
[6] = target: T2, Neuronal acetylcholine receptor subunit alpha-7; test: Antagonist activity at human alpha7 nAChR expressed in acetylcholine-induced Xenopus laevis oocytes assessed as inhibition of acetylcholine-induced current at 100 nM by two electrode voltage-clamp assay; assay type: cell-based; details: Oocyte, filed as antagonist
[7] = target: Neuronal acetylcholine receptor; alpha3/beta2 (Rattus norvegicus) (UniProt P04757+P12390); test: Antagonist activity at rat alpha3beta2 nAChR expressed in acetylcholine-induced Xenopus laevis oocytes assessed as inhibition of acetylcholine-induced current at 100 nM by two electrode voltage-clamp assay; assay type: cell-based; details: Oocyte
[8] = target: Neuronal acetylcholine receptor subunit alpha-7 (Rattus norvegicus) (UniProt Q05941); test: Antagonist activity at rat alpha7 nAChR expressed in acetylcholine-induced Xenopus laevis oocytes assessed as inhibition of acetylcholine-induced current at 30 nM by two electrode voltage-clamp assay relative to control; assay type: cell-based; details: Oocyte
[9] = target: Neuronal acetylcholine receptor subunit alpha-7 (Rattus norvegicus) (UniProt Q05941); test: Antagonist activity at rat alpha7 nAChR expressed in acetylcholine-induced Xenopus laevis oocytes assessed as inhibition of acetylcholine-induced current at 100 nM by two electrode voltage-clamp assay relative to control; assay type: cell-based; details: Oocyte
[10] = target: T1, Neuronal acetylcholine receptor; alpha9/alpha10 (Homo sapiens); test: Antagonist activity at human alpha9alpha10 nAChR expressed in acetylcholine-induced Xenopus laevis oocytes assessed as inhibition of acetylcholine-induced current at 30 nM at -120 mV holding potential by two electrode voltage-clamp assay; assay type: cell-based; details: Oocyte, filed as antagonist
[11] = target: T1, Neuronal acetylcholine receptor; alpha9/alpha10 (Homo sapiens); test: Antagonist activity at human alpha9alpha10 nAChR expressed in acetylcholine-induced Xenopus laevis oocytes assessed as inhibition of acetylcholine-induced current at 30 nM at -40 mV holding potential by two electrode voltage-clamp assay; assay type: cell-based; details: Oocyte, filed as antagonist
[12] = target: T3, Voltage-dependent N-type calcium channel subunit alpha-1B (Homo sapiens, UniProt Q00975); test: Inhibition of human Cav2.2 channel transfected in HEK293T cells co-expressed with human GABAB receptor assessed as inhibition of Cav2.2-mediated Ba2+ current at 100 nM measured for 3 to 5 days by whole-cell patch clamp assay; assay type: cell-based; details: time 3-5 day
[13] = target: T3, Voltage-dependent N-type calcium channel subunit alpha-1B; test: Inhibition of human Cav2.2 channel transfected in HEK293T cells assessed as inhibition of Cav2.2-mediated Ba2+ current at 1 uM measured for 3 to 5 days by whole-cell patch clamp assay; assay type: cell-based; details: time 3-5 day
Rattus norvegicus [14] = test: Analgesic activity in Chronic constriction injury rat model assessed as increase in paw withdrawal threshold at 250 microg/kg,IM administration and measured for 0.5 to 48 hrs; assay type: functional, organism-based; details: dose 250.0 µg/kg, time 0.5-48 hrs
Rattus norvegicus [15] = test: Analgesic activity in Chronic constriction injury rat model assessed as increase in paw withdrawal latency at 250 microg/kg,IM administration and measured for 0.5 to 48 hrs; assay type: functional, organism-based; details: dose 250.0 µg/kg, time 0.5-48 hrs
Rattus norvegicus [16] = test: Analgesic activity in Chronic constriction injury rat model assessed as decrease in hyperalgesia at 250 microg/kg,IM administration and measured for 0.5 to 48 hrs; assay type: functional, organism-based; details: dose 250.0 µg/kg, time 0.5-48 hrs
Rattus norvegicus [17] = test: Analgesic activity in Chronic constriction injury rat model assessed as decrease in hyperalgesia at 0.25 to 25 microg/kg,IM administrated every 2 hrs for 14 days; assay type: functional, organism-based; details: dose 0.25-25 µg/kg, time 14.0 day
Rattus norvegicus [18] = test: Analgesic activity in Chronic constriction injury rat model assessed as decrease in hyperalgesia at 250 microg/kg,IM administrated every 2 hrs for 7 days; assay type: functional, organism-based; details: dose 250.0 µg/kg, time 7.0 day
[19] = target: Sodium channel protein type 9 subunit alpha (Homo sapiens) (UniProt Q15858); test: Inhibition of Nav1.7 (unknown origin) at 1 uM
[20] = target: Sodium channel protein type 10 subunit alpha (Homo sapiens) (UniProt Q9Y5Y9); test: Inhibition of Nav1.8 (unknown origin) at 1 uM
[21] = target: T4, Potassium/sodium hyperpolarization-activated cyclic nucleotide-gated channel 2 (Homo sapiens) (UniProt Q9UL51); test: Inhibition of HCN2 (unknown origin) at 1 uM
T4 sequence (whole entry): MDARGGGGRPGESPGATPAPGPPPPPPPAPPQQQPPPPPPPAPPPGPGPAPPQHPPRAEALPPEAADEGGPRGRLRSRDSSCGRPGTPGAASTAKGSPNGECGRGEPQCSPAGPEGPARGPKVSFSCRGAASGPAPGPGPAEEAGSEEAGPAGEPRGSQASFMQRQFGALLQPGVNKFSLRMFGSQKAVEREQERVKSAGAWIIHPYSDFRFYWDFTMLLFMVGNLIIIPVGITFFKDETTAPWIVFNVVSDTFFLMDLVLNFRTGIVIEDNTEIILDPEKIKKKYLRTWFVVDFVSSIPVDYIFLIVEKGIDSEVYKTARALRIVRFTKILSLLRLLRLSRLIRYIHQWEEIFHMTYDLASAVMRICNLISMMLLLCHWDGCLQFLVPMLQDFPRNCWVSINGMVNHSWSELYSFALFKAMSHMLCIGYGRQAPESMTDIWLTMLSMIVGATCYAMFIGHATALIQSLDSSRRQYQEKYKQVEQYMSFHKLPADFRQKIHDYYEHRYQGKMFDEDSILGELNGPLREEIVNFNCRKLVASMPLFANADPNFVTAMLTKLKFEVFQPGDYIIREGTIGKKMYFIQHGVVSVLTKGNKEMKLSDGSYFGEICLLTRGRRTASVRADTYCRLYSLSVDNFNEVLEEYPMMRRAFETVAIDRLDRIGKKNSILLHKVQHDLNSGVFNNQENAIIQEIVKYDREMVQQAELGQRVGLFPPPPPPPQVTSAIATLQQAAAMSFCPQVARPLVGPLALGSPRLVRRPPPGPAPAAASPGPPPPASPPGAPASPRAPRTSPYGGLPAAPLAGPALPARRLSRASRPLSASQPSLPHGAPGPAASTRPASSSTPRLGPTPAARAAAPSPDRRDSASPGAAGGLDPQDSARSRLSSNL

T2 sequence (P36544 whole entry): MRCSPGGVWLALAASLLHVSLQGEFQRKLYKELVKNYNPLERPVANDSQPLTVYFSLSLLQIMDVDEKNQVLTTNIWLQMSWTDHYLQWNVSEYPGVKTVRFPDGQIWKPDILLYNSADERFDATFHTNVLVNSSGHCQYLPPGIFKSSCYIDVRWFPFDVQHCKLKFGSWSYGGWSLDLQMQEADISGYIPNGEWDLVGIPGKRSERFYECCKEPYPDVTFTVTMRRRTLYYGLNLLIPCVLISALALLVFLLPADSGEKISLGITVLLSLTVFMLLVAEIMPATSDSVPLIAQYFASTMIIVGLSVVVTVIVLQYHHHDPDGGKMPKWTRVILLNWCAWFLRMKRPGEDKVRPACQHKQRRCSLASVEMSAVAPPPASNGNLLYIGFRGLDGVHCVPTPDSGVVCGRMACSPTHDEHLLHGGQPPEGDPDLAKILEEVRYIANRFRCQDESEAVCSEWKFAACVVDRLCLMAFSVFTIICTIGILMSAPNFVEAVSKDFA
T3 sequence (Q00975 whole entry, looked up): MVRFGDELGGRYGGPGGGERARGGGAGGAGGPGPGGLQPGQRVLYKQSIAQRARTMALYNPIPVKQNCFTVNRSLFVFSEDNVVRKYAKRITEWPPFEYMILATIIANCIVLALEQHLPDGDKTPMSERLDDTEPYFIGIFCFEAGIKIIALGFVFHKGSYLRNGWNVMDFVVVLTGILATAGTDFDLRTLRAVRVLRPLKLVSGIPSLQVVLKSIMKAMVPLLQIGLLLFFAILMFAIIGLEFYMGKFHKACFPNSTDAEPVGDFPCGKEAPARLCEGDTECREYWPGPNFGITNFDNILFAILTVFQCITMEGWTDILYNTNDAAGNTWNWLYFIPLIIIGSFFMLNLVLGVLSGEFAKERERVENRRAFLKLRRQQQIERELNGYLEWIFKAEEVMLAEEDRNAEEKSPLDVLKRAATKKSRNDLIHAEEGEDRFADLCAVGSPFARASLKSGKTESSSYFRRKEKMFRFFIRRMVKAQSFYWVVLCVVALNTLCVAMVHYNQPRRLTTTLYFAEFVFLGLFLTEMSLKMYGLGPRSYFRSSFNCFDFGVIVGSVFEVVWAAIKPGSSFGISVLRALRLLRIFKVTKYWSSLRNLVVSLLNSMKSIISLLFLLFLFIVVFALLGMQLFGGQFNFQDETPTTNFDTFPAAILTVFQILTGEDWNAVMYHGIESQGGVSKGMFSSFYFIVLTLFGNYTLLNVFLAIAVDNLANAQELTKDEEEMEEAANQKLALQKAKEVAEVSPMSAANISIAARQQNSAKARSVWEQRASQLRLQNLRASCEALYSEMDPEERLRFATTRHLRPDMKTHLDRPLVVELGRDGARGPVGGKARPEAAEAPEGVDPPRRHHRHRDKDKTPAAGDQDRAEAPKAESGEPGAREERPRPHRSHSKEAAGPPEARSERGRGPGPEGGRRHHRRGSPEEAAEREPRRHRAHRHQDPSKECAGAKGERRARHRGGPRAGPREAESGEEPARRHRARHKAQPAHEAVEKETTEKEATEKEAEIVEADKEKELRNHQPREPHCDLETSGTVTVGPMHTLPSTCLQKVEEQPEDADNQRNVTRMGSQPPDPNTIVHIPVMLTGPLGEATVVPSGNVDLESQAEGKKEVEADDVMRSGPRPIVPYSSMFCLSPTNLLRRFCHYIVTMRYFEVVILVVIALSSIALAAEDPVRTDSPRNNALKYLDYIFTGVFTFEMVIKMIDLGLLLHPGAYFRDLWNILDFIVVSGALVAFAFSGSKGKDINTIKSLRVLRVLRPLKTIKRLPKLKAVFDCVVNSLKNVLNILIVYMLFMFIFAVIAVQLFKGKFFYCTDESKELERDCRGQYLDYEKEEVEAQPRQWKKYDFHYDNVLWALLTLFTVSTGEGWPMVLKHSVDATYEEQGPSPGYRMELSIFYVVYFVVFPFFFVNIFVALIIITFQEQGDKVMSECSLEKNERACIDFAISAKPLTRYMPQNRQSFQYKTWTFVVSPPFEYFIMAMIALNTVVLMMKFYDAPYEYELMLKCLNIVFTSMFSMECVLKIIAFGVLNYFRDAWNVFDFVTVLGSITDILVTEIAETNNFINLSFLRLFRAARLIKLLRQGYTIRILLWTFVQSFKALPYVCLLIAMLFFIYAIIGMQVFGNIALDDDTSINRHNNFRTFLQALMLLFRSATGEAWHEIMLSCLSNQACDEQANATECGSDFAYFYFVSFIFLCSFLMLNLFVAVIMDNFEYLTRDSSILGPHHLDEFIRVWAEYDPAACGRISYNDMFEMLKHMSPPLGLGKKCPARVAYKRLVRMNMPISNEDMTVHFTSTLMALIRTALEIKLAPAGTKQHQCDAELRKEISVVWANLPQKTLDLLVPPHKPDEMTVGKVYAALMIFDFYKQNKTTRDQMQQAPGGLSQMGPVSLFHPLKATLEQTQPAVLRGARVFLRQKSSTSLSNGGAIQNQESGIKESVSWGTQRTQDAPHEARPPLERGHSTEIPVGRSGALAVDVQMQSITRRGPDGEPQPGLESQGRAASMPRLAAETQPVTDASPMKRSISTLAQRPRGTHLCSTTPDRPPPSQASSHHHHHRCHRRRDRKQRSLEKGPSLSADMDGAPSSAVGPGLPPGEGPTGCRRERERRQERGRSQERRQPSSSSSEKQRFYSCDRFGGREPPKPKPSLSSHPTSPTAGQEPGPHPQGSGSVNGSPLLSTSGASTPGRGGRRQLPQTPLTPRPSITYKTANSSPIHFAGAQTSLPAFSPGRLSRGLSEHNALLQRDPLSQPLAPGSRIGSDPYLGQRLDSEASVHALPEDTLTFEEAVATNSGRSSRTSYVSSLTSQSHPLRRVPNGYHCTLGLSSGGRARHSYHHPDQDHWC
Neuronal acetylcholine receptor subunit alpha-7 (Rattus norvegicus), sequence (Q05941 whole entry): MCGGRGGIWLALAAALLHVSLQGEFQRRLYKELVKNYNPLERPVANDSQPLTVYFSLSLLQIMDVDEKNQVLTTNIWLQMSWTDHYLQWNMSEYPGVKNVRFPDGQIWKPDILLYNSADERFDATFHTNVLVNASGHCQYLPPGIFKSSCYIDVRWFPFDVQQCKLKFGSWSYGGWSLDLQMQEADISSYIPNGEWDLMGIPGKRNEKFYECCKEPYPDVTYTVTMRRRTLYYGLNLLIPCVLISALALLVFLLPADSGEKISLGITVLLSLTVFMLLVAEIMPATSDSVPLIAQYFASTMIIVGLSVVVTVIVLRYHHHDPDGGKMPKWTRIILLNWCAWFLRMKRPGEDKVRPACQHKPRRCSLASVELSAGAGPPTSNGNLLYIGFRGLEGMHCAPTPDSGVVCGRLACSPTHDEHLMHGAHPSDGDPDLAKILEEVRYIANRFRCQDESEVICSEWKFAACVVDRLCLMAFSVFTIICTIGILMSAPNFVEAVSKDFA
Nicotinic acetylcholine receptor alpha9/alpha10, sequence (P43144 whole entry): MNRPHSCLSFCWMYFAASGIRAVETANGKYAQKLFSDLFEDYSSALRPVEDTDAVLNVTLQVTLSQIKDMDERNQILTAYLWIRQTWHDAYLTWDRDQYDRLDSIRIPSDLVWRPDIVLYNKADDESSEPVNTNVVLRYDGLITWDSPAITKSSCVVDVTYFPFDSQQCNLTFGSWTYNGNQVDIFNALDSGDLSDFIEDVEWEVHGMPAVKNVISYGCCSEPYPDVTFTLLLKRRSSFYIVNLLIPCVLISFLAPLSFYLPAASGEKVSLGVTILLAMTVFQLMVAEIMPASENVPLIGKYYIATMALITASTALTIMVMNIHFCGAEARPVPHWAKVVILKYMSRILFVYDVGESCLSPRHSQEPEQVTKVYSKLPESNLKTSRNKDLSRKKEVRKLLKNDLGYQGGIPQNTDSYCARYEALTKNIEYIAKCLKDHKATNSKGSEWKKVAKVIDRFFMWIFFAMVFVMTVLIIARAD
Nicotinic acetylcholine receptor alpha9/alpha10, sequence (Q9JLB5 whole entry): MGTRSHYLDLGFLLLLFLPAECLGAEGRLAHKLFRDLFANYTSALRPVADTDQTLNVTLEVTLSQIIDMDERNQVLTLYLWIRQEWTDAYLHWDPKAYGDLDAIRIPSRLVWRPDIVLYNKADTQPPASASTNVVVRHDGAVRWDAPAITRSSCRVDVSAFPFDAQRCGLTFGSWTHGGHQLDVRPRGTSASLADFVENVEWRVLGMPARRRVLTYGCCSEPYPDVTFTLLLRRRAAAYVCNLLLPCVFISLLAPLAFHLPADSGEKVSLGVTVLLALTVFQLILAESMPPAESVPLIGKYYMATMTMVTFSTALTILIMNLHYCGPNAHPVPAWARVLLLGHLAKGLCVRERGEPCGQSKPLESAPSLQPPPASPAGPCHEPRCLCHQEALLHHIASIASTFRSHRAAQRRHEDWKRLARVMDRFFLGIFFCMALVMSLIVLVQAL

Compound: CC[C@H](C)[C@H](NC(=O)[C@H](CCCNC(=N)N)NC(=O)[C@H](CCCNC(=N)N)NC(=O)[C@H](Cc1ccc(O)cc1)NC(=O)[C@H](CCCNC(=N)N)NC(=O)[C@H](CCCNC(=N)N)NC(=O)[C@H](CCCNC(=N)N)NC(=O)[C@H](CCCNC(=N)N)NC(=O)[C@H](CC(=O)O)NC(=O)[C@H](Cc1ccc(O)cc1)NC(=O)[C@@H]1CCCN1C(=O)[C@H](CO)NC(=O)[C@H](CCCNC(=N)N)NC(=O)[C@H](Cc1ccc(O)cc1)NC(=O)[C@H](CCCNC(=N)N)NC(=O)CN)C(=O)N[C@H](C(=O)N[C@@H](CC(=O)O)C(N)=O)[C@@H](C)O
- IC50 [1]: 5 nM
- IC50 [2]: 25.2 nM
- inhibition [3]: 50%
- IC50 [4]: 18.3 nM
- inhibition [5]: 40%
- inhibition [6]: 80%
- inhibition [7]: inactive
- inhibition [8]: 10%
- inhibition [9]: 35%
- inhibition [10]: Active
- inhibition [11]: Active
- inhibition [12]: Active
- inhibition [13]: inactive
- Activity (Rattus norvegicus [14]): Active
- Activity (Rattus norvegicus [15]): Active
- Activity (Rattus norvegicus [16]): Active
- Activity (Rattus norvegicus [17]): Active
- Activity (Rattus norvegicus [18]): Active
- inhibition [19]: inactive
- inhibition [20]: inactive
- inhibition [21]: inactive
